# Biological target: T1, ssGDH (glucose dehydrogenase from Sulfolobus solfataricus) (Saccharolobus solfataricus, UniProt O93715)
# T1 construct: gene gdh; full-length, recombinant from pET3a, heat step (70 °C), anion exchange and gel filtration, no tag mentioned; homotetramer; five Trp per monomer
# Test: steady-state NADPH formation at […] nm
# Assay type: biochemical
# Conditions: apparent substrate inhibition; co-substrate NADP+; 100 mM HEPES pH 8; temperature not stated with the value
# T1 sequence (O93715 whole entry): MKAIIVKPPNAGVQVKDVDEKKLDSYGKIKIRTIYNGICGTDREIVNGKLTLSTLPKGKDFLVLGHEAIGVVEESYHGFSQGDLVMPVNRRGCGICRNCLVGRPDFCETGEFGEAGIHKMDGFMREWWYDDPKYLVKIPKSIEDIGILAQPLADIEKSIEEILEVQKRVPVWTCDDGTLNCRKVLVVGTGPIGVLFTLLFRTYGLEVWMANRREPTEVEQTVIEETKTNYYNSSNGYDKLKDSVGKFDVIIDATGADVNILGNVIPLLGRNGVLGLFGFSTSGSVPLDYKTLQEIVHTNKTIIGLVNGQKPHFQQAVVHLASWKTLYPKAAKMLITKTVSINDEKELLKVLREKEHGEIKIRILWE
structure (smiles),measurement,value
"OC[C@@H]1C[C@H](O)[C@@H](O)C(O)O1 (stereo partly drawn) [4-deoxy, 4-deoxy-D-glucose]",Ki,29.5 ± 8.7 mM
